In EP0362304B1, “CHEMICAL SENSORS EMPLOYING CATALYTIC ANTIBODIES” (IGEN, INC., priority 1987, dated 1989):

Experiments:
catalytic antibody 48G7 = assay: pH-based catalytic antibody biosensor: differential electrode response to MpNPC after incubation in transition state analog; format: biochemical, BALB/C mice; details: electrodes incubated in 50 µM TSA; pH 8.5 buffer (0.14 M KCl, 0.01 M Tris, 0.02% sodium azide); substrate MpNPC
Text: A pH-based catalytic antibody biosensor incorporating catalytic antibodies as enzyme mimics in a configuration similar to that of enzyme electrodes was used to measure the pH change resulting from the catalyzed hydrolysis of methyl p-nitrophenylcarbonate (MpNPC). […] The catalytic antibody 48G7 is synthesized and its catalytic activity identified in accordance with the methodology described in Example 1.
The catalytic antibody 48G7 produces a relatively small rate of acceleration as compared to natural enzymes. Consequently, the observed pH difference is small but is easily measurable in a reproducible manner. […] Two miniature pH electrodes 152 and 154 were employed and the difference between the two was monitored. […]
The electrical potential of the two miniature pH electrodes 152 and 154 (Microelectrodes Inc., model MI-404) was monitored relative to a single Ag/AgCl reference electrode 156 in an nonthermostated vessel 158 as shown in Fig. 13 using two Keithley 617 electrometers 160. […]
The reference electrode 156 and the two pH electrodes 152 and 154 were placed in 2.5 ml of a pH 8.5 buffer (0.14 M KCl, 0.01 M Tris, 0.02% sodium azide) and allowed to stabilize for […]. […] The response to MpNPC was measured after approximately 12 hours in solution (not shown) but the remainder of the measurements were performed after approximately 36 hours in solution. […]

[1] = test system: IgG designated catalytic antibody 48G7, monoclonal antibody elicited to the tetrahedral nitrophenyl phosphonate transition-state analogue (2); assay: Antibody-catalysed hydrolysis of carbonate (1), followed by the increase in absorbance at 400 nm (nitrophenolate ion release), Michaelis-Menten kinetics; format: biochemical, BALB/C mice
Experimental: BALB/C mice were immunized with the BSA-phosphonate conjugate emulsified in complete Freund's adjuvant. A fusion was carried out by standard methods using SP2/0 myeloma as the fusion partner. IgG was purified from ascites fluid by affinity chromatography on protein A coupled Sepharose 4B and dialyzed exhaustively against reaction buffer.
The rates of hydrolysis of carbonate I (1) in the presence (kobsd) and the absence (kun) of 4.4 µM antibody were determined as a function of substrate concentration. Carbonate hydrolysis was followed in 10 mM Tris-HCl, pH 8.5 at 30°C, by following the increase in absorbance at 400 nm due to nitrophenolate ion release.

[2] = 4.4 µM antibody, 10 mM Tris-HCl, pH 8.5 at 30°C, first pair of values printed
[3] = second pair of values printed ("This IgG", designated 48G7)

| SMILES | inhibition of catalysis (MpNPC hydrolysis) (catalytic antibody 48G7) | Km [1, 2] | kcat [1, 2] | rate acceleration above background ([1]; antibody-catalysed versus background rate) | Km [1, 3] | kcat [1, 3] |
| --- | --- | --- | --- | --- | --- | --- |
| COP(=O)(O)Oc1ccc([N+](=O)[O-])cc1 [transition state analog (TSA), methyl p-nitrophenylphosphate] | effectively inhibits the catalysis |  |  |  |  |  |
| COC(=O)Oc1ccc([N+](=O)[O-])cc1 [carbonate (1), methyl p-nitrophenylcarbonate] |  | 660 µM | 0.0233 ± 0.00333 s⁻¹ | 16,000 | 350 µM | 0.483 s⁻¹ |
